For orientation: AUC(0-t) means exposure summed from dosing to a finite time, without extrapolation to infinity. Read a high AUC(0-t) as more exposure. In general, Cmax refers to the peak of the concentration-time curve. The Tmax is the time from dosing to the highest level.

Each structure is given as a SMILES string. Marks after values point to notes of the source that are not given here.

The text below walks through data of article PMC12389038 (Pharmaceutics, 2025).

Data set [1] deals with T. spiralis female worms. Nature of the data set: In vitro parasitic assay on T. spiralis female worms. Set-up: species or system Trichinella spiralis. The protocol: CBi mice were orally infected with 10 L1 T. spiralis larvae per gram of body weight and sacrificed on day 6 post-infection (intestinal phase) as described previously. After euthanasia, the small intestine was excised, segmented into equal lengths, and placed in Petri dishes containing 8–12 mL of incubation medium (0.85% NaCl with 250 μg/mL gentamicin). Each segment was opened longitudinally, gently agitated in the medium, and incubated for 4 h at 37 °C in 5% CO2. Following incubation, intestinal pieces were rinsed with medium and discarded. The medium containing released parasites was collected, centrifuged at a low speed, and the pellet was resuspended in 2–3 mL of RPMI 1640 supplemented with 250 μg/mL of gentamicin and 10% fetal bovine serum. Female worms were then isolated under sterile conditions for further assays.
They were stirred at room temperature for 24 h and then filtered through sterile ethyl cellulose 0.2 μm pore filters (Minisart®, Sartorius Stedim Biotech, Göttingen, Germany).
The entire procedure was conducted under sterile conditions as described by Priotti et al.. Female T. spiralis worms obtained as above were incubated overnight in RPMI 1640 supplemented with 250 μg/mL of gentamicin and 10% fetal bovine serum at 37 °C in 5% CO2. […] The MBZ solution served as the positive control, and the culture medium with the solvent served as the negative control. Worms were incubated at 37 °C in a humidified 5% CO2 atmosphere for 30 h and observed under an inverted microscope at 2, 4, 7, 24, and 30 h. Viability was assessed at each time point by motility and morphology to classify worms as live or dead. The number and motility of newborn larvae were also recorded. Median worm survival was analyzed using survival curves. Experiments were performed in duplicate, with data corrected against the negative control.
Survival curves were calculated using Kaplan and Meier’s product limit method (GraphPad Prism® 9.5; GraphPad Software, Inc., San Diego, CA, USA). The significance of the difference among survival curves was determined with the log-rank test.

In data set [2] the test system is Trichinella spiralis encysted muscle larvae. Put plainly: Increasing doses of pure MBZ, therapeutic efficacy in T. spiralis-infected CBi+ mice. The format is in vivo. The conditions noted are these: CBi+ males and females, 30 or 45 mg of MBZ/kg, vs control mice or 15 mg of MBZ/kg. The procedure: As in the experiments described in Section 2.10.2, the pure drug was administered in the parenteral stage of infection on days 27, 28, and 29 p-i. Seven days after the last dose, mice were sacrificed, and the number and viability of the tongue’s encysted muscle larvae were determined to evaluate anthelmintic efficacy.

Data set [3] in a line: in vivo. Set-up: species or system CBi/L and CBi+ mice. The conditions noted are these: mouse, po, 15 mg/kg. The procedure: Separately, 2.6 g of gelatin powder was dissolved in 10 mL of hot water (60 °C), and 100 μL of this solution was added to each tube before solidification. The mixture was then sonicated in a 60 °C water bath, and 40 mg of powdered commercial chow was added to enhance palatability and ensure complete ingestion. This procedure was developed in our lab and was published in Codina et al..
Following the procedures described by Codina et al., three to four animals per formulation were anesthetized after the drug administration with an intraperitoneal injection of ketamine/xylazine 10:1, 5 min before blood collection. Whole blood (approximately 1.5 mL) samples were taken by cardiac puncture at 0.3, 0.6, 1, 1.2, 2, 2.5, 3, 4, 5, 7, and 24 h post-treatment. Blood was collected into heparinized vials and centrifuged at 9000 rpm for 15 min to obtain plasma, which was transferred to a plastic tube and stored at −20 °C until HPLC analysis.
Briefly, each plasma sample (200 μL) was deproteinized by adding methanol (1 mL), frozen for 30 min at −20 °C, and centrifuged at 15,000 rpm at 4 °C for 12 min. Then, the supernatant was evaporated under vacuum, and the dried samples were stored frozen until analyzed. Samples were reconstituted in 100 μL of the mobile phase and filtered through 0.2 μm polyvinylidene fluoride (PVDF) syringe filters (Agilent, Santa Clara, CA, USA). The mobile phase consisted of 0.05 M of monobasic potassium phosphate buffer and methanol (40:60, v/v). […] Briefly, each plasma sample (200 μL) was treated to eliminate proteins by adding methanol (1 mL), frozen for 30 min at −20 °C, and centrifuged at 15,000 rpm at 4 °C for 12 min. Then, the supernatant was evaporated under a vacuum, and the dried samples were frozen until analyzed. Samples of 25 μL were injected, and the analytes were eluted (flow 1.2 mL/min) from a column Zorbax Eclipse C-18 (150 × 4.6 mm; 5 μm). The absorbance was measured at a wavelength of 247 nm. The analyte retention time was 3.8 ± 0.2 min.
According to regulatory guidelines, the Lower Limit of Quantification (LLOQ) is defined as the lowest concentration of an analyte in a biological matrix that can be quantitatively determined with acceptable precision and accuracy. […] The LLOQ was determined based on the standard deviation of the response at the lowest concentration point, measured in triplicate, and was evaluated for both precision (% CV) and accuracy criteria. […] Consequently, only data up to 7 h were considered for pharmacokinetic analysis.
AUCs were calculated using the trapezoidal rule. Pharmacokinetic parameters were expressed as mean ± SEM. In this section, we report data as mean ± SEM to provide a measure of the central tendency along with the precision of the estimated mean. The standard error of the mean (SEM) is particularly useful for highlighting the reliability of the sample mean as an estimate of the true population mean, which is relevant when evaluating pharmacokinetic (PK) parameters under controlled conditions.

For data set [4] the following is noted: background statement, no reference given; cited from earlier work.
Data set [5] deals with Trichinella spiralis encysted muscle larvae. Nature of the data set: In vivo therapeutic efficacy in the parenteral stage of T. spiralis infection. Set-up: species or system CBi/L and CBi+ mice. The conditions noted are these: for Dead larvae percentage: 15 mg MBZ/kg/day oral days 27, 28, 29 p-i, methylene blue, median (range). The procedure: Since CBi/L and CBi+ mice show significant body weight differences, as already stated, adult animals of both sexes were infected orally with an equivalent dose of 2 T. spiralis L1 larvae per g of the host’s body weight. Each animal was weighed before infection, 24–48 h before treatment, and before sacrifice. During the infection course, the general health of each mouse (overall physical condition and behavior) was monitored three times a week.
Six mice per line and sex were randomly assigned to the non-treated control (C) or treated groups (MBZ, NP, or Comp). Seven days after the last dose, mice were sacrificed to quantify encysted muscle larvae in the tongue. The tongue was excised, weighed, and digested overnight at 37 °C in a pepsin–HCl solution. Digestion was interrupted by adding saline, and the larvae were rinsed several times with saline to remove debris. After low-speed centrifugation (250–300 g, 5 min), the supernatant was carefully removed, and the pellet containing larvae was resuspended in 2 mL of saline. Larvae were counted under an optical microscope at 40× magnification using an acrylic plate. Each formulation’s anthelmintic efficacy was assessed by its effect on the larval muscle load (relative larval load: rLL, number of L1 larvae per g fresh tissue). Also, the effect of the formulations on the encysted L1 larvae viability (dead larvae percentage: proportion of dead muscle larvae/total muscle larvae recovered from each animal) was analyzed using the methylene blue supravital staining technique, as already described.

Data set [6] can be described thus: Particle size determination (SEM image analysis / Nano Particle Analyzer). The format is physicochemical. The protocol:
The particle size of the NP and inclusion complexes was determined by imaging using scanning electron microscopy (Leitz AMR 1600 T [Amray, Bedford, MA, USA]), with an acceleration potential of 20 kV. Samples were sputter-coated with a gold layer to make them conductive. Then, to determine the particle size, scanning electron microscopy images were analyzed using the ImageJ 1x software, a Java-based graphic design program dedicated to image analysis, to estimate size. The particle size of nano-formulations was determined by using a Nano Particle Analyzer Horiba SZ-100 (Kyoto, Japan). Samples were diluted (1:30) in filtered distilled water before measuring.

Take `COC(=O)Nc1nc2ccc(C(=O)c3ccccc3)cc2[nH]1` [MBZ, Mebendazole]: in data set [1] (T. spiralis females, 30 h incubation in RPMI 1640), the “Survival Proportion After 30 h” value amounted to 79.3%. In addition, the “Median Survival” value in data set [1] (T. spiralis females, 30 h incubation in RPMI 1640, Kaplan–Meier) is on record as “Undefined”. Besides, the “Effect on mobility of T. spiralis newborn larvae” value in data set [1] (larvae released by females exposed to the antiparasitic solutions, 30 h) is given as “Neither MBZ nor the formulations affected the mobility”. The “Decrease in muscle rLL” value in data set [2] came out at 40%. The AUC(0-t) in data set [3] (female, CBi+) is 600 ± 80 ng·h/mL; in data set [3] (female, CBi/L), 3900 ± 630 ng·h/mL; in data set [3] (male, CBi+), 400 ± 200 ng·h/mL; in data set [3] (male, CBi/L), 2700 ± 820 ng·h/mL. In addition, the Cmax is 200 ± 20 ng/mL in data set [3] (female, CBi+); 1300 ± 260 ng/mL in data set [3] (female, CBi/L); 300 ± 110 ng/mL in data set [3] (male, CBi+); 1300 ± 310 ng/mL in data set [3] (male, CBi/L). Moreover, the Tmax in data set [3] (female, CBi+) was determined as 39.6 min; in data set [3] (female, CBi/L) it was 39.6 min; in data set [3] (male, CBi+), 39.6 min; in data set [3] (male, CBi/L), 39.6 min. The Oral bioavailability result in data set [4] is reported as “approximately 20%”. The Dead larvae percentage in data set [5] (CBi+ female) is reported as 5 (5–11) ^a %; in data set [5] (CBi+ male), 11 (7–75) ^a %; in data set [5] (CBi/L female), 15 (6–25) ^b %; in data set [5] (CBi/L male), 27 (7–75) ^b %. Further, the “Number of muscle larvae recovered compared to control animals” value in data set [5] (pure MBZ 15 mg/kg on days 27, 28, and 29 p-i) was “did not reduce the number of muscle larvae recovered”. For the same compound, the “Particle Size (mean diameter)” value in data set [6] came out at 10.4 ± 6.9 µm.
